Results reported in the NIST ThermoML archive (doi:10.1016/j.tca.2013.09.034).

Assay: mn = molality of the nth substance listed, in mol/kg
Settings: 101 kPa, Liquid; for speed of sound: Sing-around technique in a fixed-path interferometer; for mass density: Vibrating tube method

CCCCn1cc[n+](C)c1C.[Cl-] [1-butyl-2,3-dimethylimidazolium chloride] + O
Settings	mass density, 288.15 K [kg/m3]	mass density, 298.15 K [kg/m3]	mass density, 308.15 K [kg/m3]	speed of sound, 288.15 K [m/s]	speed of sound, 298.15 K [m/s]	speed of sound, 308.15 K [m/s]
m1 = 0.0354	999.41	997.296	994.233	1471.7	1502.4	1525.2
m1 = 0.0466	999.559	997.434	994.36	1480.1	1508.2	1530.4
m1 = 0.0575	999.712	997.614	994.516	1484.9	1512.1	1533
m1 = 0.0702	999.936	997.784	994.679	1489.8	1515.5	1535.5
m1 = 0.0932	1000.31	998.103	994.956	1498	1520.7	1539.2
m1 = 0.1164	1000.68	998.419	995.243	1502.9	1525.7	1543.5
m1 = 0.1401	1000.99	998.698	995.547	1505.3	1527.9	1546.4
m1 = 0.1635	1001.1	998.836	995.675	1506.4	1529.3	1547.4
m1 = 0.1862	1001.01	998.743	995.587	1507.5	1530.5	1549.1
m1 = 0.2082	1000.78	998.556	995.17	1508.2	1531.5	1550
m1 = 0.2329	1000.25	998.134	994.487	1509.1	1532.1	1550.6
